Experimental findings from PMC12462901 (Journal of the American Chemical Society, 2025) are described below.

The structures appear in SMILES notation. Where two headings read alike, the source gives them in different places.

Data set [1] deals with HeLa human cervical carcinoma cells (CCL-2). Nature of the data set: cellular potency in HeLa cells. Format: cell-based. The conditions noted are these: read-out: IC50 value (cellular potency).
The nature of another data set: logD. Format: physicochemical. The conditions noted are these: relative to parent atuveciclib.
A short description of another data set: kinetic solubility. Format: physicochemical. The conditions noted are these: compared to atuveciclib.
Data set [2] concerns Madin-Darby canine kidney (MDCK) cells. The experiment in a line: permeability in MDCK cells. In kind it is in vitro ADME. The settings on record: compared to the parent compound.

For `COc1cc(F)ccc1-c1ncnc(Nc2cccc(C[S@](C)(=N)=O)c2)n1` [atuveciclib, reference compound], the IC50 (usually the concentration that gives 50% inhibition) in data set [1] (Homo sapiens, HeLa) was 300 nM.

Regarding `COc1cc(F)ccc1-c1ncnc(Nc2cccc(C[S@@](C)(=O)=NC3CCC3)c2)n1` [Compound 57], the IC50 in data set [1] (HeLa human cervical carcinoma cells (CCL-2)) came to 700 nM. The logD entry in “logD” is “increase in logD”. Moreover, in the data set “kinetic solubility”, the kinetic solubility result is “notable improvement compared to atuveciclib”. Moreover, the permeability result in data set [2] is recorded as “enhanced permeability compared to the parent compound”.
